According to patent publication US20230333019A1, “TWO-PHOTON FLUORESCENT PROBES FOR SIMULTANEOUSLY DETECTING CALCIUM IONS IN ORGANELLES AND LYSOSOMAL PROTONS” (Korea University Research and Business Foundation, priority 2022, published 2023):
Like-named read-outs stand apart in the source and are kept apart here. Marks after values point to notes of the source that are not given here.

Experiments:
HeLa cells [1] = assay: Dual-color TPM of cytoplasmic Ca2+ and lysosomal pH, monensin; assay type: cell-based; settings: monensin 20 μM
Procedure: To simultaneously monitor changes in lysosomal pH and cytoplasmic [Ca^2+], HeLa cells were co-labeled with a mixture of BCa-1-AM (3 μM) and FHEt-1lyso (1 μM). The cells were washed twice with RB, once with RB containing 5 mM EGTA, and twice with RB containing 0.1 mM EGTA. The TPEF intensity of the cells was measured before and after adding monensin (20 μM, Sigma-Aldrich) to EtOH.
Whether BCa-1 and FHEt-1lyso could be used to simultaneously monitor changes in cytoplasmic [Ca^2+ ] and lysosomal pH during dual-color TPM was evaluated. […] Accordingly, it was confirmed that BCa-1 and FHEt-1lyso could be used to simultaneously monitor changes in cytoplasmic [Ca^2+] and lysosomal pH in live cells during dual-color TPM.

[2] = Fluorescence titration with Ca2+ in calcium calibration buffer (apparent dissociation constant, FEF); assay type: binding; settings: for FEF, fluorescence enhancement factor (Fmax-Fmin)/Fmin: one-photon, complexation with Ca2+ in CB
Procedure: (§1) A dissociation constant (Kd) for binding the probe to Ca^2+ was measured using a conventionally known method. Calcium calibration buffers (CBs; 10 mM 3-[N-morpholino]propanesulfonic acid [MOPS], 100 mM KCl, pH 7.2) containing Ca^2+ at concentrations of 0 to 40 μM were prepared using a calcium calibration buffer kit (Biotium, CA, USA). A buffer containing […] or more of Ca^2+ was prepared by adding an appropriate amount of CaCl2 to a MOPS buffer. Probes (BCa-3°mem at a concentration of 0.3 μM and BCa-1 and BCa-2mito at concentrations of 0.1 μM) were added to calcium CB and fluorescence intensity was measured. Each Kd was calculated through a resultant titration curve. In addition, in order to evaluate a fluorescence titration of FHEt-1lyso, the fluorescence intensity was measured by adding FHEt-1lyso probe at a concentration of 0.6 μM in a universal buffer (UB; 0.1 M citric acid, 0.1 M KH2PO4, 0.1 M Na2B4O7, 0.1 M tris[hydroxymethyl]aminomethane, 0.1 M KCl) at pH 4 to 11. The pKa value was calculated through a titration curve.

HeLa cells [3] = assay: TPM detection of cytoplasmic Ca2+, histamine-induced oscillation; assay type: cell-based
Procedure: The mixture was cultured (incubated) at 37° C.
Before and after adding histamine dihydrochloride (100 μM, Sigma-Aldrich) to HBSS, Ca^2+ oscillation was evaluated by TPEF intensity monitoring in HeLa cells labeled with BCa-1-AM (2 μM).
Whether BCa-1 may detect Ca^2+ in the cytoplasm was evaluated. […] The increase and decrease of the TPEF intensity were repeated for 800 seconds, which was consistent with the results of previous histamine-induced Ca oscillation studies. Accordingly, it was confirmed that BCa-1 may target the cytoplasm and detect Ca^2+ in the cytoplasm (FIG. 16).

[4] = Water solubility in aqueous buffer; assay type: physicochemical
Procedure: The water solubility of BCa-1, BCa-2mito, BCa−3°mem, and FHEt-1lyso in an aqueous buffer (pH 7.4) was evaluated using a conventional fluorescence technique (Chem. Asian J. 2015, 10(10):2240-2249).

HeLa cells [5] = assay: Effective TP action cross-section (Φδeff) in probe-labeled cells; assay type: cell-based; settings: 750 nm
Procedure: (§2) Φδ and Φδeff for the probes were evaluated using the fluorescence method as reported in other studies (Chem. Asian J. 2015, 10(10):2240-2249).

HeLa cells [6] = assay: TPM detection of Ca2+ in plasma membrane; assay type: cell-based
Procedure: HeLa cells were purchased from the Korean Cell Line Bank (Seoul, Korea). The cells were cultured by a method described in previous studies (Chem. Asian J. 2015, 10(10):2240-2249). Before two days of imaging, HeLa cells (5×10^4/mL) were plated on a confocal glass bottom dish (#200350, SPL Life Sciences, Gyonggi-do, Korea). The cells were washed with an aqueous buffer (pH 7.4), a Hank's balanced salt solution (HBSS; LB003-02, WelGene Inc., Gyeongsangbuk-do, Korea), or a Ringer's solution (RB; 124 mM NaCl, 26 mM NaHCO3, 10 mM d-glucose, 1.3 mM MgSO4, 3 mM KCl, 1.25 mM NaH2PO4) unless otherwise specified. Thereafter, the probe (0.5 to 3 μM) and Pluronic® F-127 (0.03%, Sigma-Aldrich, St. Louis, MO, USA) were added to the cells in one of the three aqueous buffers (1.0 mL). The mixture was cultured (incubated) at 37° C. (BCa-1-AM and BCa-2mito-AM) for 40 minutes or at room temperature (RT; BCa-3mem) for 10 minutes. The cells labeled with the probe were washed 3 times with each corresponding buffer before imaging.
(§3) TP microscopy (TPM) images were obtained using spectral confocal and multiphoton microscopy (Leica TCS SP2; Leica). TPM images of probe-labeled HeLa cells were obtained using a Leica TCS SP2 using a conventional method (Chem. Asian J. 2015, 10(10):2240-2249). Time-dependent changes in TPEF intensity were monitored and measured at intervals of 1.6 to 2.0 seconds in the xyt mode upon excitation at 750 nm. To monitor changes in [Ca^2+ ] in the plasma membrane, the cells were washed successively with RB containing 5, 0.1, and 0 mM of EGTA and then incubated with BCa-3mem (2 μM). The TPEF intensity was measured before and after adding CaCl2 (2 mM) to RB and EGTA (2 mM) in distilled water.
First, whether BCa-3mem may detect Ca^2+ in the plasma membrane was evaluated.

[7] = Fluorescence quantum yield; assay type: physicochemical
Procedure: Absorption and emission spectra of a two-photon probe (TP probe) were measured using an Agilent 8453 diode array UV-Vis spectrophotometer and a Hitachi fluorescence spectrophotometer F-7000 system using a previously reported method (Chem. Asian J. 2015, 10(10):2240-2249). Fluorescence quantum yield (Φ) was measured by a method used in another study (Anal. Chem. 2011, 83(4):1232-1242) using Coumarin 540A. Two-photon (TP) excitation was implemented using a mode-locked Ti:sapphire laser (Chameleon, 90 MHz, 200 fs; Coherent Inc.).
All of the two-photon probe compounds emitted weak fluorescence at a maximum emission value (4) of 464 to 466 nm and fluorescence quantum yields (0) of 0.027 to 0.063 in CB (10 mM MOPS, 100 mM KCl, pH 7.2). […] The low fluorescence quantum yield (0) values observed with these probes may contribute to efficient photo-induced electron transfer (PeT) from the receptor to the fluorophore (Table 1).

[8] = Two-photon action cross-section (Φδ); assay type: physicochemical; settings: for Φδmax, maximum TP action cross-section: 750 nm, excess Ca2+ (BCa probes) or pH 4.3 (FHEt-1lyso), error ±15%; for Φδ values: absence of Ca2+ (BCa-3°mem) / pH 11 (FHEt-1lyso)
Procedure: as §2
To evaluate the brightness of the TPM image, a TP action cross-section (Φδ) was measured by a conventionally known method.

HeLa cells [9] = system: HeLa cells
Procedure: HeLa cells were purchased from the Korean Cell Line Bank (Seoul, Korea). […] Before two days of imaging, HeLa cells (5×10^4/mL) were plated on a confocal glass bottom dish (#200350, SPL Life Sciences, Gyonggi-do, Korea). The cells were washed with an aqueous buffer (pH 7.4), a Hank's balanced salt solution (HBSS; LB003-02, WelGene Inc., Gyeongsangbuk-do, Korea), or a Ringer's solution (RB; 124 mM NaCl, 26 mM NaHCO3, 10 mM d-glucose, 1.3 mM MgSO4, 3 mM KCl, 1.25 mM NaH2PO4) unless otherwise specified. Thereafter, the probe (0.5 to 3 μM) and Pluronic® F-127 (0.03%, Sigma-Aldrich, St. Louis, MO, USA) were added to the cells in one of the three aqueous buffers (1.0 mL). The mixture was cultured (incubated) at 37° C. (BCa-1-AM and BCa-2mito-AM) for 40 minutes or at room temperature (RT; BCa-3mem) for 10 minutes. The cells labeled with the probe were washed 3 times with each corresponding buffer before imaging.

[10] = Metal ion selectivity, relative fluorescence intensity in MOPS buffer; settings: for Response to Zn2+ and Mn2+: 100 μM; for Response to Zn2+ and Mn2+ / Response to Mg2+, Fe2+, Cu2+, Co2+: MOPS pH 7.2; for Response to Mg2+, Fe2+, Cu2+, Co2+: Mg2+ 2 mM, Co2+ 100 μM; for Selectivity for Ca2+: versus competing metal ions
Procedure: FIG. 8 is graphs showing relative fluorescence intensities of (a) BCa-1, (b) BCa-2mito, or (c) BCa−3°mem in the presence of 2 mM Mg^2+ or 100 μM Zn^2+, Mn^2+, Fe^2+, Cu^2+, or Co^2+ (black bars) and according to subsequent addition of 100 μM Ca^2+ (red bars) in a MOPS buffer (30 mM 3[N-morpholino]propanesulfonic acid, 100 mM KCl, pH 7.2). At this time, excitation wavelengths are (a) 363 nm, (b) 355 nm, and (c) 350 nm, respectively.

HeLa cells [11] = assay: TPM lysosome colocalization with BLT-blue; assay type: cell-based
Excerpt: as §3
Whether FHEt-1lyso may detect H^+ in the lysosome was evaluated. […] Therefore, it was confirmed that FHEt-1lyso had the ability to detect H^+ in the lysosome by targeting the lysosome.

[12] = Fluorescence titration of FHEt-1lyso against pH in universal buffer (pKa); assay type: physicochemical; settings: for pKa: universal buffer (UB)
Procedure: as §1
Meanwhile, the fluorescence titration of FHEt-1lyso was performed in UB at pH 4 to 11. […] Therefore, it was confirmed that FHEt-1lyso may detect pH in live cells.

[13] = from fluorescence titration curve, CB, read-out: Dissociation constant Kd
[14] = in the absence of excess Ca2+, CB pH 7.2
[15] = in the presence of excess Ca2+ (in parentheses)

| SMILES | Kd [2, 13] | Φδeff, effective TP action cross-section (HeLa cells [5]) | Fluorescence quantum yield Φ [7, 14] | Fluorescence quantum yield Φ [7, 15] | Φδmax, maximum TP action cross-section [8] | FEF, fluorescence enhancement factor (Fmax-Fmin)/Fmin [2] | Response to Zn2+ and Mn2+ [10] | Response to Mg2+, Fe2+, Cu2+, Co2+ [10] | Selectivity for Ca2+ [10] | Φδ values [8] | other results |
| --- | --- | --- | --- | --- | --- | --- | --- | --- | --- | --- | --- |
| COCCOCCOc1ccc2oc(-c3ccc4cc(NCC(=O)Nc5ccc(N(CC(=O)OCOC(C)=O)CC(=O)OCOC(C)=O)c(OCCOc6ccccc6N(CC(=O)OCOC(C)=O)CC(=O)OCOC(C)=O)c5)ccc4c3)nc2c1 [BCa-1-AM] | 180 nM | – | – | – | – | – | – | – | – | – | TPEF intensity in the cytoplasm on monensin addition (HeLa cells [1]; 380 to 480 nm): simultaneously increased; Duration of repeated increase and decrease of TPEF intensity (HeLa cells [3]; after histamine): 800 s; TPEF intensity on adding histamine (HeLa cells [3]; histamine 100 μM, cytoplasm): increased and then decreased |
| CCCCCCOc1ccc2oc(-c3ccc4cc(NCC(=O)Nc5ccc(N(CC(=O)[O-])CC(=O)[O-])c(OCC(=O)N6CCOCC6)c5)ccc4c3)nc2c1.[K+].[K+] [BCa-3mem] | – | 4800 GM | – | – | – | – | – | – | – | – | Aqueous solubility [4]: too low; TPEF intensity upon addition of Ca2+ (HeLa cells [6]; Ca2+ 2 mM): increased; TPEF intensity during treatment with EGTA (HeLa cells [6]; EGTA 2 mM): decreased; Persistence of plasma membrane signals (HeLa cells [6]; labeled HeLa cells): at least 1 hour |
| O=C([O-])CN(CC(=O)[O-])c1ccc(NC(=O)CNc2ccc3cc(-c4nc5cc(OCCC[P+](c6ccccc6)(c6ccccc6)c6ccccc6)ccc5o4)ccc3c2)cc1OCCOc1c(F)cccc1N(CC(=O)[O-])CC(=O)[O-].[Br-].[K+].[K+].[K+].[K+] [BCa-2mito] | 2700 nM | 2000 GM | 0.049^d | (0.50) | 70 10^−50 cm^4s/photon (GM) | 10 | moderate | weak | high | – | TPEF intensity in the cytoplasm on FCCP treatment (HeLa cells [9]; FCCP): increased temporarily in the cytoplasm and then gradually decreased to a baseline; TPEF intensity in the mitochondria on FCCP treatment (HeLa cells [9]; FCCP): rapidly decreased |
| CC(=O)OCOC(=O)CN(CC(=O)OCOC(C)=O)c1ccc(NC(=O)CNc2ccc3cc(-c4nc5cc(OCCC[P+](c6ccccc6)(c6ccccc6)c6ccccc6)ccc5o4)ccc3c2)cc1OCCOc1c(F)cccc1N(CC(=O)OCOC(C)=O)CC(=O)OCOC(C)=O.[Br-] [BCa-2mito-AM] | 2700 nM | – | – | – | – | – | – | – | – | – | Pearson's colocalization coefficient (A) (HeLa cells [9]; with MitoTracker Red): 0.84 |
| O=C([O-])CN(CC(=O)[O-])c1ccc(NC(=O)CNc2ccc3cc(-c4nc5ccccc5o4)ccc3c2)cc1OCC(=O)N1CCOCC1.[K+].[K+] [BCa-3°mem] | – | 4800 GM | 0.027^d | (0.72) | 60 10^−50 cm^4s/photon (GM) | 26 | moderate | weak | high | quite low | FEF, fluorescence enhancement factor (in parentheses) ([2]; TP process, complexation with Ca2+): (25); Kd ([2]; TP process, read-out: Kd^TP): 95000 nM; TPM images in contrast to BCa-3mem (HeLa cells [6]; HeLa cells, 0.5 μM probe): much darker and blurry |
| CCN(CC)c1ccc(NC(=O)CNc2ccc3c(c2)C(C)(CC(=O)NCCN(C)C)c2cc(C(C)=O)ccc2-3)cc1 (centres unmarked) [FHEt-1lyso] | – | 21000 GM | – | – | 70 10^−50 cm^4s/photon (GM) | – | – | – | – | quite low | Fluorescence quantum yield Φ ([7]; at pH 4.3 (in parentheses)): (0.33); Pearson's colocalization coefficient (A) (HeLa cells [11]): 0.86; TPEF intensity in the lysosome on monensin addition (HeLa cells [1]; 550 to 660 nm): rapidly decreased; FEF, fluorescence enhancement factor (in parentheses) ([12]; TP process, protonation, UB): (24); FEF, fluorescence enhancement factor ([12]; one-photon, protonation, UB): 25; pKa ([12]; TP process, UB, read-out: pKa^TP (in parentheses)): 6.6; pKa ([12]; one-photon fluorescence titration, UB pH 4 to 11, read-out: pKa): 6.5 |
